Assay results taken from ChEMBL document CHEMBL4834428 (J Med Chem, 2021).

Tests used:
[1] = target: T1, NAD-dependent protein deacetylase sirtuin-3, mitochondrial (Homo sapiens, UniProt Q9NTG7); assay: Inhibition of His6-tagged/TEV fused SIRT3 (unknown origin) expressed in Escherichia coli BL21 (DE3) preincubated for 15 mins followed by NAD+ addition and measured after 30 mins by FLucK529Ac based luminescence assay
T1 sequence (Q9NTG7 whole entry): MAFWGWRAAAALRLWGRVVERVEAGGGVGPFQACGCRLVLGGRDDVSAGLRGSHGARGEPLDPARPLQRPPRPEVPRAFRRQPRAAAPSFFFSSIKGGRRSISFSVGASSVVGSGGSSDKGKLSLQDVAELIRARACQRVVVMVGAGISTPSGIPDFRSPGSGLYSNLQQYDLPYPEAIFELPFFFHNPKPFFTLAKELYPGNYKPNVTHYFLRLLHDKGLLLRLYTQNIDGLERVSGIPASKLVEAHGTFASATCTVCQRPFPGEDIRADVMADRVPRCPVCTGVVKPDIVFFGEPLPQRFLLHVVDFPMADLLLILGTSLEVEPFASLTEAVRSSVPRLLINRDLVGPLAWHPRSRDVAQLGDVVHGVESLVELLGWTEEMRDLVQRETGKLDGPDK

[2] = target: T2, NAD-dependent protein deacetylase sirtuin-1 (Homo sapiens, UniProt Q96EB6)
T2 sequence (Q96EB6 whole entry): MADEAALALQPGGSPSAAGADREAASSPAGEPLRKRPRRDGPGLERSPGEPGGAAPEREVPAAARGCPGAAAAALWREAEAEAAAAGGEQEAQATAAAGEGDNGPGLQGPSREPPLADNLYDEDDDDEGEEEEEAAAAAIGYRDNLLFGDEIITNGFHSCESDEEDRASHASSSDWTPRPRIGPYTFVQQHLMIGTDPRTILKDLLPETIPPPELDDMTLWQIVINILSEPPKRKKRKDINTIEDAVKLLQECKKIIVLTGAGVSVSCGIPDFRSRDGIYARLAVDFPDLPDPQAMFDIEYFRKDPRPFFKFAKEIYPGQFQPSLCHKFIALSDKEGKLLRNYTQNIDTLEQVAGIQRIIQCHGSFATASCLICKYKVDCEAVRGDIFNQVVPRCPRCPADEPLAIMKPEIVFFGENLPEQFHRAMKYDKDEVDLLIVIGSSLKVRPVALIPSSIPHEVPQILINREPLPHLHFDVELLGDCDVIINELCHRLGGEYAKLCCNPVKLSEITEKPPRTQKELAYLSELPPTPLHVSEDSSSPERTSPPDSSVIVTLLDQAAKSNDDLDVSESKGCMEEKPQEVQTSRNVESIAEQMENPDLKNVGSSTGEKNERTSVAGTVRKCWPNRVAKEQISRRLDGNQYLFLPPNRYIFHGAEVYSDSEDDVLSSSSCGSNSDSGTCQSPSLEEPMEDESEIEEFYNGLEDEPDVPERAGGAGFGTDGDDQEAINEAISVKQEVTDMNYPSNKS
Description: Inhibition of His6-tagged SIRT1 (unknown origin) expressed in Escherichia coli BL21 (DE3) preincubated for 15 mins followed by NAD+ addition and measured after 30 mins by FLucK529Ac based luminescence assay

[3] = target: T2, NAD-dependent protein deacetylase sirtuin-1; remark: listed apart in the source
Description: Uncompetitive inhibition of His6-tagged SIRT1 (unknown origin) expressed in Escherichia coli BL21 (DE3) assessed as inhibition constant measured every 2 mins for 30 mins in presence of NAD+ and ATP by FLucK549Ac based Michaelis-Menten analysis

[4] = target: T3, NAD-dependent protein deacetylase sirtuin-2 (Homo sapiens, UniProt Q8IXJ6); assay: Inhibition of His6-tagged/TEV fused SIRT2 (unknown origin) expressed in Escherichia coli BL21 (DE3) preincubated for 15 mins followed by NAD+ addition and measured after 30 mins by FLucK529Ac based luminescence assay
T3 sequence (Q8IXJ6 whole entry): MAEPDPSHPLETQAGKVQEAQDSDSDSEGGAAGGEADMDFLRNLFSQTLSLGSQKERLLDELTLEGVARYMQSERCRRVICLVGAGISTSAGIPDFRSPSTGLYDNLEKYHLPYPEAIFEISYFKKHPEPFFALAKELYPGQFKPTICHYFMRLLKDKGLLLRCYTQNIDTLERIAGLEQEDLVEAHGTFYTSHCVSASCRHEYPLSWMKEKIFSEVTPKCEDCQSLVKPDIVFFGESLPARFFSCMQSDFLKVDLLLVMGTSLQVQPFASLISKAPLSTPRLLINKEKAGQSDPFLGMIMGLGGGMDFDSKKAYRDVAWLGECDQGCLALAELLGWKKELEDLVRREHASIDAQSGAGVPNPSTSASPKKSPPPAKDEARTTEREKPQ

| IC50 [1] | IC50 [2] | Ki [3] | IC50 [4] | SMILES |
| --- | --- | --- | --- | --- |
| > 60000 nM | 220 nM | 400 nM | 37700 nM | N#Cc1ccccc1CN1CC(C(N)=O)Oc2ccccc21 (stereo in doubt; 4.27) |
| > 60000 nM | 2100 nM | – | > 60000 nM | NC(=O)C1CN(Cc2ccccn2)c2ccccc2O1 (stereo not given) |
| > 60000 nM | 470 nM | – | > 60000 nM | NC(=O)C1CN(Cc2ccccc2I)c2ccccc2O1 (stereo not given) |
